Some test systems named below: NCI-H23; IGROV-1; CAKI-1; ACHN; U-251; MDA-MB-435; SR; SK-MEL-2; MDA-N; SK-MEL-5; HCT-116; UACC-62; SF-268; COLO 205; A498; CCRF-CEM; A549; KM12; SF-539; M14.
Holding throughout (assay): NCI anticancer screen, dose series, 48 h

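Cultured in 96-well plates, cells were exposed to test compound for 48 hours across five concentrations. At the GI50, growth is halved.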 Activity calls are given as the source filed them. No stated cut-off is given here; in the data, active = GI50 up to about 1.1 µM and inactive = higher. Some results are limits rather than exact numbers.

Regarding `CC1OC(OC2C(O[C@@H]3C[C@@H]4CC[C@@H]5[C@H](CC[C@]6(C)C7C(C[C@@H]56)O[C@]5(CC[C@@H](C)CO5)[C@H]7C)[C@@]4(C)C[C@H]3O)OC(CO)C(O)C2O)C(O)C(O)C1O` (stereo partly drawn), the GI50 in the experiment on NCI-H23 is 1.82 µM (inactive); in the experiment with IGROV-1 it was 1.73 µM (inactive); in the experiment with CAKI-1, 2.06 µM (inactive); in the experiment with ACHN it was 1.75 µM (inactive); in the experiment with U-251 it was 1.68 µM (inactive); with MDA-MB-435, 1.8 µM (inactive). Also, the GI50 in the experiment on SR is 2.16 µM (inactive); in the experiment on SK-MEL-2, 1.78 µM (inactive); with MDA-N it was 2.47 µM (inactive); in the experiment on SK-MEL-5, 2.09 µM (inactive); in the experiment with HCT-116, 1.81 µM (inactive); in the experiment with UACC-62, 1.74 µM (inactive). Also, the GI50 was 1.91 µM (inactive) with SF-268; 1.85 µM (inactive) in the experiment with COLO 205; 2.3 µM (inactive) with A498; 1.93 µM (inactive) with CCRF-CEM; 1.86 µM (inactive) in the experiment on A549; 2.32 µM (inactive) with KM12. For the same molecule, the GI50 is 1.64 µM (inactive) with SF-539 and 1.79 µM (inactive) in the experiment with M14.
`COC(=O)CNC(=O)CCC(C)[C@H]1CCC2C3C(C[C@H](OC(C)=O)[C@@]21C)[C@@]1(C)CCC2(C[C@H]1C[C@H]3OC(C)=O)OOC1(CCCCC1)OO2` (stereo partly drawn): the GI50 in the experiment with NCI-H23 was 1.91 µM (inactive); with IGROV-1, 1.4 µM (inactive); with CAKI-1, 2.02 µM (inactive); in the experiment on ACHN, 1.89 µM (inactive); in the experiment with U-251, 1.76 µM (inactive); in the experiment with MDA-MB-435, 2.07 µM (inactive). The GI50 with SR was 1.24 µM (inactive); in the experiment on SK-MEL-2, 2.24 µM (inactive); in the experiment on MDA-N it was 1.74 µM (inactive); in the experiment on SK-MEL-5, 2.63 µM (inactive); in the experiment with HCT-116, 2.73 µM (inactive); in the experiment with UACC-62, 9.12 µM (inactive). Further, the GI50 in the experiment with SF-268 is 1.75 µM (inactive); in the experiment with COLO 205 it was 1.91 µM (inactive); in the experiment with A498, 17.2 µM (inactive); with CCRF-CEM, 2.1 µM (inactive); in the experiment on A549, 1.72 µM (inactive); with KM12, 2.01 µM (inactive). The GI50 with SF-539 is 1.95 µM (inactive); with M14 it was 3.91 µM (inactive).
For `CN(C)c1ccc(/C=C(/NC(=O)c2ccccc2)C(=O)Nc2ccccc2C(=O)O)cc1`, the GI50 with NCI-H23, in the experiment with IGROV-1, in the experiment with CAKI-1, in the experiment with ACHN, in the experiment on U-251 and in the experiment on MDA-MB-435 was > 100 µM (inactive) in each case. The GI50 in the experiment with SR, in the experiment with SK-MEL-2, in the experiment with MDA-N, in the experiment on SK-MEL-5, in the experiment on HCT-116 and in the experiment with UACC-62 was > 100 µM (inactive) each time. Besides, the GI50 with SF-268 was > 100 µM (inactive); in the experiment on COLO 205, > 100 µM (inactive); in the experiment on A498, 57 µM (inactive); in the experiment on CCRF-CEM, > 100 µM (inactive); in the experiment with A549, > 100 µM (inactive); with KM12, > 100 µM (inactive). Besides, the GI50 in the experiment on SF-539 and in the experiment on M14 was > 100 µM (inactive) throughout.
Consider `CCOC(=O)CC1(O)CCCCC1(Sc1ccc(C)cc1)Sc1ccc(C)cc1` (stereo not drawn), for which the GI50 in the experiment on NCI-H23 was 49.4 µM (inactive); in the experiment with CAKI-1 it was 32.2 µM (inactive); with ACHN, 51.5 µM (inactive); in the experiment on U-251 it was 33.7 µM (inactive); with MDA-MB-435 it was 33.9 µM (inactive); in the experiment on SR, 31.3 µM (inactive). The GI50 in the experiment on SK-MEL-2 was 20.5 µM (inactive); in the experiment on MDA-N it was 35.5 µM (inactive); with SK-MEL-5 it was 29.9 µM (inactive); with HCT-116 it was 33.9 µM (inactive); with UACC-62 it was 92 µM (inactive); with SF-268, 31.7 µM (inactive). The GI50 is 42.2 µM (inactive) with COLO 205; > 100 µM (inactive) in the experiment with A498; 4.76 µM (inactive) in the experiment with CCRF-CEM; 33.8 µM (inactive) in the experiment with A549; 44.2 µM (inactive) in the experiment with KM12; > 100 µM (inactive) in the experiment on SF-539. Further, the GI50 in the experiment with M14 is 41.4 µM (inactive).
For `O=c1ccn2n1CCCCC2`, the GI50 with NCI-H23, with IGROV-1, in the experiment on CAKI-1, with ACHN, with U-251 and in the experiment on MDA-MB-435 was > 100 µM (inactive) each time. The GI50 in the experiment on SR, in the experiment on SK-MEL-2, with MDA-N, in the experiment with SK-MEL-5, in the experiment with HCT-116 and in the experiment with UACC-62 was > 100 µM (inactive) each time. Besides, the GI50 in the experiment with SF-268, in the experiment on COLO 205, with A498, in the experiment with CCRF-CEM, in the experiment with A549 and in the experiment on KM12 was > 100 µM (inactive) throughout. In addition, the GI50 in the experiment on SF-539 and with M14 was > 100 µM (inactive) throughout.
For `Cc1cc(O)c2c(c1)C(=O)C(c1c(C)cc3c(c1O)C(=O)C1OC1C3=O)=CC2=O` (stereo not drawn), the GI50 in the experiment with NCI-H23 was 8.97 µM (inactive); in the experiment with IGROV-1 it was 9.1 µM (inactive); in the experiment with CAKI-1, 0.796 µM (active); with ACHN, 0.885 µM (active); in the experiment on U-251, 6.9 µM (inactive); with MDA-MB-435, 2.54 µM (inactive). Moreover, the GI50 was 0.327 µM (active) in the experiment on SR; 10.7 µM (inactive) with SK-MEL-2; 1.27 µM (inactive) in the experiment on MDA-N; 6.34 µM (inactive) with SK-MEL-5; 1.71 µM (inactive) in the experiment with HCT-116; 2.04 µM (inactive) in the experiment on UACC-62. The GI50 with SF-268 is 7.24 µM (inactive); in the experiment with COLO 205, 0.561 µM (active); in the experiment with A498 it was 6.4 µM (inactive); with CCRF-CEM, 0.0667 µM (active); in the experiment with A549, 17.7 µM (inactive); in the experiment on KM12, 13.7 µM (inactive). Further, the GI50 in the experiment with SF-539 was 4.48 µM (inactive); with M14 it was 2.96 µM (inactive).
With `CN(Nc1cc(=O)[nH]c(=O)[nH]1)c1ccccc1`, the GI50 in the experiment with NCI-H23, in the experiment on IGROV-1, in the experiment on CAKI-1, in the experiment on ACHN, with U-251 and in the experiment with MDA-MB-435 was > 100 µM (inactive) in each case. The GI50 in the experiment with SR, in the experiment with SK-MEL-2, in the experiment on MDA-N, in the experiment on SK-MEL-5, in the experiment with HCT-116 and in the experiment with UACC-62 was > 100 µM (inactive) in each case. In addition, the GI50 in the experiment on SF-268, in the experiment with COLO 205, in the experiment on A498, with CCRF-CEM, with A549 and with KM12 was > 100 µM (inactive) each time. For the same molecule, the GI50 with SF-539 and in the experiment with M14 was > 100 µM (inactive) throughout.
Take `COC(=O)C1(Cc2ccc3c(c2)CCC3)Cc2ccccc2C1=O` (stereo not drawn): the GI50 in the experiment on NCI-H23 was 19 µM (inactive); in the experiment with IGROV-1 it was 14 µM (inactive); in the experiment on CAKI-1, 19.6 µM (inactive); with ACHN, 33.3 µM (inactive); in the experiment with U-251 it was 13.4 µM (inactive); in the experiment on MDA-MB-435, 2.97 µM (inactive). Moreover, the GI50 with SR is 6.47 µM (inactive); with SK-MEL-2, 13.2 µM (inactive); in the experiment on MDA-N it was 2.72 µM (inactive); in the experiment with SK-MEL-5 it was 4.3 µM (inactive); with HCT-116, 7.8 µM (inactive); with UACC-62 it was 8.43 µM (inactive). For the same molecule, the GI50 was 22.1 µM (inactive) in the experiment on SF-268; 9.66 µM (inactive) with COLO 205; 18.4 µM (inactive) in the experiment on A498; 6.97 µM (inactive) in the experiment on CCRF-CEM; 21.1 µM (inactive) with A549; 1.55 µM (inactive) in the experiment with KM12. Besides, the GI50 in the experiment with SF-539 was 16 µM (inactive); with M14, 9.53 µM (inactive).
As for `c1ccc(-c2cc(-c3cccs3)c(-c3cccs3)o2)cc1`, the GI50 in the experiment with NCI-H23, with IGROV-1, in the experiment on CAKI-1, in the experiment on ACHN, in the experiment on U-251 and in the experiment on MDA-MB-435 was > 100 µM (inactive) throughout. The GI50 was > 100 µM (inactive) with SR; 34.7 µM (inactive) in the experiment with SK-MEL-2; > 100 µM (inactive) with MDA-N; > 100 µM (inactive) in the experiment on SK-MEL-5; 50.7 µM (inactive) in the experiment on HCT-116; > 100 µM (inactive) in the experiment on UACC-62. Moreover, the GI50 in the experiment with SF-268 is > 100 µM (inactive); in the experiment with COLO 205, > 100 µM (inactive); in the experiment on A498, > 100 µM (inactive); in the experiment with CCRF-CEM, > 100 µM (inactive); in the experiment with A549 it was > 100 µM (inactive); in the experiment with KM12, 48.4 µM (inactive). Moreover, the GI50 in the experiment on SF-539 and in the experiment with M14 was > 100 µM (inactive) in each case.
As to `COc1ccc(N2C(=O)C(C)SC2c2cc3cc(Br)ccc3nc2Cl)cc1` (stereo not drawn), the GI50 in the experiment with NCI-H23 is 33.6 µM (inactive); with IGROV-1 it was 7.93 µM (inactive); in the experiment with CAKI-1 it was 35.1 µM (inactive); with ACHN, 48.8 µM (inactive); in the experiment on MDA-MB-435 it was 19.7 µM (inactive); in the experiment on SR, 18.1 µM (inactive). Besides, the GI50 with SK-MEL-2 was 19.7 µM (inactive); with MDA-N it was 28.5 µM (inactive); in the experiment with SK-MEL-5 it was 36.1 µM (inactive); with HCT-116, 37.8 µM (inactive); in the experiment on UACC-62, 26.2 µM (inactive); in the experiment on SF-268, 38.3 µM (inactive). Also, the GI50 with COLO 205 was 35.5 µM (inactive); in the experiment on A498, 46.8 µM (inactive); in the experiment on CCRF-CEM, 26.6 µM (inactive); in the experiment with A549, 12.4 µM (inactive); in the experiment on KM12, 30.8 µM (inactive); with SF-539, 27.4 µM (inactive). The GI50 in the experiment with M14 is 44.4 µM (inactive).
